From patent US5300672A (priority 1992, dated 1994)
Where two headings read alike, the source gives them in different places.

Columns and labels:
Pseudomonas fluorescens = experiment: Alternate Minimum Inhibitory Concentrations Test (Table 4), Ps.fl; format: cell-based; details: Table 4 alternate test, 250 ppm to 0.8 ppm in TSB, 72 hours, 30° C.; for MIC: Pseudomonas fluorescens, read-out: MIC Ps.fl
Procedure, shortened: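 MIC taken as lowest concentration showing no growth after 72 h incubation at 30 °C in TSB. Twofold dilution series spanned 250 down to 0.8 ppm, wells inoculated with phosphate-buffer-diluted 24 h culture.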

[1] = system: Pseudoperonospora cubensis; experiment: whole plant or invertebrate; format: in vivo
Piricularia oryzae = experiment: whole plant or invertebrate; format: in vivo; details: for pest or weed control at 200 ppm / pest or weed control at 100 ppm / pest or weed control at 25 ppm: Pyricularia oryzae; for pest or weed control at 200 ppm: read-out: % Control RB, application rate 200 ppm
[2] = system: Pellicularia filamentosa (f. sp. sasiki); experiment: whole plant or invertebrate; format: in vivo
Phytophthora infestans = experiment: whole plant or invertebrate; format: in vivo; details: for pest or weed control at 100 ppm / pest or weed control at 25 ppm / pest or weed control at 200 ppm: Phytophthora infestans, in Solanum lycopersicum, 96 h; for pest or weed control at 25 ppm: read-out: % Control TLB, application rate 25 ppm
[3] = system: Puccinia recondita (f. sp. tritici Races PKB and PLD); experiment: whole plant or invertebrate; format: in vivo
[4] = system: Erysiphe graminis (f. sp. tritici); experiment: whole plant or invertebrate; format: in vivo
[5] = system: Puccinia graminis (f. sp. tritici Race 15B-2); experiment: whole plant or invertebrate; format: in vivo; details: for pest or weed control at 200 ppm / pest or weed control at 100 ppm: Puccinia graminis, 336 h, read-out: % Control WSR
[6] = Pseudoperonospora cubensis, in Cucumis sativus, 168 h, read-out: % Control CDM
[7] = Puccinia recondita, 240 h, read-out: % Control WLR
[8] = Blumeria graminis, read-out: % Control WPM
[9] = read-out: % Control TLB, application rate 100 ppm
[10] = read-out: % Control RB, application rate 100 ppm

SMILES | MIC (Pseudomonas fluorescens) [µg/mL] | pest or weed control at 50 ppm [1, 6] [%] | pest or weed control at 200 ppm (Piricularia oryzae) [%] | pest or weed control at 100 ppm ([2]; 120 h, read-out: % Control RSB) [%] | pest or weed control at 100 ppm (Phytophthora infestans; read-out: % Control TLB) [%] | pest or weed control at 100 ppm [3, 7] [%] | pest or weed control at 100 ppm [4, 8] [%] | pest or weed control at 200 ppm [5] [%] | pest or weed control at 100 ppm (Piricularia oryzae; [10]) [%] | also measured
CCCCCCCCNC(=O)/C=C\SC(=O)Cc1ccccc1 [Compound 12, N-octyl-cis-3-(phenylacetylthio)acrylamide] | > 250 | 85 | 90 | 0 | 90 | 0 | 0 | 90 |  | 
CCCCCCCCNC(=O)/C=C\SC(=O)/C=C/c1ccccc1 [Compound 14, N-octyl-cis-3-[(trans-3-phenylprop-2-enoyl)thio]acrylamide] | > 250 | 50 |  | 0 | 90 | 0 | 0 | 75 |  | pest or weed control at 100 ppm (Piricularia oryzae; read-out: % Control RB): 100%
CCCCCCCCNC(=O)/C=C\SC(=O)c1ccco1 [Compound 15, N-octyl-cis-3-(2-furoylthio)acrylamide] | > 250 | 50 |  | 0 |  | 95 | 0 | 90 |  | pest or weed control at 100 ppm (Piricularia oryzae; read-out: % Control RB): 100%; pest or weed control at 100 ppm (Phytophthora infestans; [9]): 95%
CCCCCCCCNC(=O)/C=C\SC(=O)c1ccc(OC)cc1 [Compound 16, N-octyl-cis-3-[(4-methoxybenzoyl)thio]acrylamide] | > 250 |  |  | 0 | 90 | 75 | 0 |  |  | pest or weed control at 12 ppm [1, 6]: 50%; pest or weed control at 25 ppm (Piricularia oryzae; read-out: % Control RB): 100%; pest or weed control at 100 ppm [5]: 75%
CCCCCCCCNC(=O)/C=C\SC(=O)c1ccc([N+](=O)[O-])o1 [Compound 17, N-octyl-cis-3-[(5-nitro-2-furoyl)thio]acrylamide] | > 250 | 50 |  | 0 | 90 | 0 | 0 | 95 | 80 | 
CCCCCCCCNC(=O)/C=C\SC(=O)c1cc(Cl)sc1Cl [Compound 18, N-octyl-cis-3-[(2,5-dichloro-3-thiophene)carbonylthio]acrylamide] | > 250 | 70 |  | 0 |  | 0 | 0 | 50 | 50 | pest or weed control at 25 ppm (Phytophthora infestans): 100%
CCCCCCCCNC(=O)/C=C\SC(=O)c1cccc(CCl)c1 [Compound 22, N-octyl-cis-3-[(3-(chloromethyl)benzoyl)thio]acrylamide] | > 250 | 99 |  | 0 |  | 0 | 0 | 75 | 0 | pest or weed control at 25 ppm (Phytophthora infestans): 95%
CCCCCCCCNC(=O)/C=C\SC(=O)C(C)(C)C [Compound 25, N-octyl-cis-3-[(1,1-dimethylpropanoyl)thio]acrylamide] | > 250 | 85 |  | 0 |  | 0 | 0 |  | 0 | pest or weed control at 100 ppm (Phytophthora infestans; [9]): 100%; pest or weed control at 100 ppm [5]: 90%
CCCCCCCCNC(=O)/C=C\SC(=O)COc1ccccc1 [Compound 26, N-octyl-cis-3-(phenoxyacetylthio)acrylamide] | > 250 | 85 |  | 0 | 90 | 0 | 0 |  | 80 | pest or weed control at 100 ppm [5]: 90%
CCCCCCCCNC(=O)/C=C\SC(=O)CCCCl [Compound 29, N-octyl-cis-3-[(4-chlorobutanoyl)thio]acrylamide] | > 250 | 85 | 75 | 0 | 90 | 0 | 0 | 75 |  | 
CCCCCCCCNC(=O)/C=C\SC(=O)C(=O)OC [Compound 30, N-octyl-cis-3-(methyloxalylthio)acrylamide] | > 250 | 70 |  | 0 | 80 |  | 0 | 75 | 0 | pest or weed control at 25 ppm [3, 7]: 50%
CCCCCCCCNC(=O)/C=C\SCc1ccc(C(F)(F)F)cc1 [Compound 33, N-octyl-cis-3-[(4-(trifluoromethyl)benzyl)thio]acrylamide] | > 250 | 50 |  | 0 | 80 | 0 | 85 | 75 |  | pest or weed control at 25 ppm (Piricularia oryzae; read-out: % Control RB, application rate 25 ppm): 80%
CCCCCCCCNC(=O)C=CSC(CO)COc1ccccc1 (stereo not drawn) [Compound 40, N-octyl-cis-3-[(1-hydroxy-3-phenoxy-2-propane)thio]acrylamide] |  |  |  |  |  |  |  |  |  | MIC Ps.fl (Pseudomonas fluorescens): > 250 Ppm; % Control CDM ([1]; in vivo): 85 % Control; % Control RB (Piricularia oryzae; in vivo): 75 % Control; % Control RSB ([2]; in vivo): 0 % Control; % Control TLB (Phytophthora infestans; application rate 100 ppm): 95 % Control; % Control WLR ([3]; in vivo): 0 % Control; % Control WPM ([4]; in vivo): 50 % Control; % Control WSR ([5]; application rate 200 ppm): 75 % Control
CCCCCCCCNC(=O)/C=C\SC(=O)C(C)(C)CCl [Compound 44, N-octyl-cis-3-[(2,2-dimethyl-3-chloropropanoyl)thio]acrylamide] | > 250 |  | 0 |  |  |  |  |  |  | pest or weed control at 200 ppm [1, 6]: 0%; pest or weed control at 200 ppm ([2]; 120 h, read-out: % Control RSB): 0%; pest or weed control at 200 ppm (Phytophthora infestans; read-out: % Control TLB): 90%; pest or weed control at 200 ppm [3, 7]: 0%; pest or weed control at 200 ppm [4, 8]: 0%; pest or weed control at 100 ppm [5]: 0%
CCCCCCCCNC(=O)/C=C\SC(=O)CCC(=O)OC [Compound 51, N-octyl-cis-3-[(3-methoxycarbonylpropanoyl)thio]acrylamide] | > 250 | 85 | 0 |  | 80 | 0 | 0 | 90 |  | pest or weed control at 25 ppm ([2]; 120 h, read-out: % Control RSB): 90%
CCCCCCCCNC(=O)/C=C\SC(=O)CCC(=O)OCC [Compound 52, N-octyl-cis-3-[(3-ethoxycarbonylpropanoyl)thio]acrylamide] | > 250 | 70 | 0 | 0 | 80 | 0 | 0 | 90 |  | 
CCCCCCCCNC(=O)/C=C\SC(=O)c1cccnc1 [Compound 55, N-octyl-cis-3-[(3-pyridine)carbonylthio]acrylamide] | > 250 |  | 0 | 0 |  | 0 | 50 | 90 |  | pest or weed control at 12 ppm [1, 6]: 70%; pest or weed control at 100 ppm (Phytophthora infestans; [9]): 95%
CCCCCCCCNC(=O)/C=C\SC(=O)c1ccc2ccccc2c1 [Compound 56, N-octyl-cis-3-[(2-naphthanoyl)thio]acrylamide] | > 250 |  | 0 |  |  |  |  | 75 |  | pest or weed control at 12 ppm [1, 6]: 50%; pest or weed control at 50 ppm ([2]; 120 h, read-out: % Control RSB): 80%; pest or weed control at 200 ppm (Phytophthora infestans; read-out: % Control TLB): 80%; pest or weed control at 200 ppm [3, 7]: 0%; pest or weed control at 200 ppm [4, 8]: 0%
CCCCCCCCNC(=O)/C=C\SC(=O)/C=C/C(=O)OCC [Compound 57, N-octyl-cis-3-[(trans-3-ethoxycarbonyl-2-propenoyl)thio]acrylamide] | > 250 | 70 | 75 |  |  |  |  | 90 |  | pest or weed control at 200 ppm ([2]; 120 h, read-out: % Control RSB): 0%; pest or weed control at 200 ppm (Phytophthora infestans; read-out: % Control TLB): 90%; pest or weed control at 200 ppm [3, 7]: 25%; pest or weed control at 12 ppm [4, 8]: 50%
C/C=C/C=C/C(=O)S/C=C\C(=O)NCCCCCCCC [Compound 59, N-octyl-cis-3-[(trans,trans-2,4-hexadienoyl)thio]acrylamide] | > 250 | 70 | 0 |  |  |  |  | 50 |  | pest or weed control at 50 ppm ([2]; 120 h, read-out: % Control RSB): 50%; pest or weed control at 200 ppm (Phytophthora infestans; read-out: % Control TLB): 80%; pest or weed control at 200 ppm [3, 7]: 0%; pest or weed control at 200 ppm [4, 8]: 0%
